Test results reported in ChEMBL document CHEMBL5154722, “Identification of new potent anticancer derivatives through simplifying the core structure and modification on their 14- hydroxyl group from oridonin” (Eur J Med Chem, 2022).
Calls of active or inactive are those of the source. The calls are words filed in the database; no cut-off is given here.

What was measured:
H22 [1] = experiment: Antitumor activity against mouse H22 cells allografted in ICR mouse assessed as reduction in tumor volume at 20 mg/kg, iv administered once a day for 21 days after 7 days of tumor implantation measured every two days; format: functional, organism-based; conditions: time 21.0 day
MGC-803 = experiment: Antiproliferative activity against human MGC-803 cells assessed as reduction in cell viability incubated for 72 hrs by MTT assay; format: functional, cell-based; conditions: MGC-803, 72 h
MCF7 [2] = experiment: Antiproliferative activity against human MCF7 cells assessed as reduction in cell viability incubated for 72 hrs by MTT assay; format: functional, cell-based; conditions: MCF7, 72 h
SW480 = experiment: Antiproliferative activity against human SW480 cells assessed as reduction in cell viability incubated for 72 hrs by MTT assay; format: functional, cell-based; conditions: SW480, 72 h
H22 [3] = experiment: Antiproliferative activity against mouse H22 cells assessed as reduction in cell viability incubated for 72 hrs by MTT assay; format: functional, cell-based; conditions: H22, 72 h
[4] = Selectivity index, ratio of IC50 for human L02 cells to IC50 for human SMMC-7721 cells; format: toxicity; conditions: L02 cells and SMMC-7721 cells, read-out: Ratio IC50
[5] = Antiproliferative activity against human U-87 MG cells assessed as reduction in cell viability incubated for 72 hrs by MTT assay; format: functional, cell-based, U-87MG ATCC
MDA-MB-231 [6] = experiment: Antiproliferative activity against human MDA-MB-231 cells assessed as reduction in cell viability incubated for 72 hrs by MTT assay; format: functional, cell-based; conditions: MDA-MB-231, 72 h
SMMC-7721 [7] = experiment: Antiproliferative activity against human […] cells assessed as reduction in cell viability incubated for 72 hrs by MTT assay; format: functional, cell-based; conditions: SMMC-7721, 72 h
[8] = Toxicity in ICR mouse allografted with mouse H22 cells assessed as change in body weight at 20 mg/kg, iv administered once a day for 21 days after 7 days of tumor implantation measured every two days; format: organism-based; conditions: in vivo, 504 h, time 21 day
[9] = Cytotoxicity against human L02 cells assessed as reduction in cell viability incubated for 72 hrs by MTT assay; format: toxicity, cell-based
HeLa = experiment: Antiproliferative activity against human HeLa cells assessed as reduction in cell viability incubated for 72 hrs by MTT assay; format: functional, cell-based
H22 [10] = experiment: Antitumor activity against mouse H22 cells allografted in ICR mouse assessed as reduction in tumor weight at 20 mg/kg, iv administered once a day for 21 days after 7 days of tumor implantation; format: functional; set-up: scale not given: the % may be the effect or the level left; conditions: time 21 day
K562 [11] = experiment: Antiproliferative activity against human K562 cells assessed as reduction in cell viability incubated for 72 hrs by MTT assay; format: functional, cell-based; conditions: K562, 72 h
SMMC-7721 [12] = experiment: Potency index, ratio of IC50 for oridonin to IC50 for test compound for antiproliferative activity against SMMC-7721 cells; format: functional, Homo sapiens
K562 [13] = experiment: Potency index, ratio of IC50 for oridonin to IC50 for test compound for antiproliferative activity against K562 cells; format: functional, Homo sapiens
MCF7 [14] = experiment: Potency index, ratio of IC50 for oridonin to IC50 for test compound for antiproliferative activity against MCF7 cells; format: functional, Homo sapiens
MDA-MB-231 [15] = experiment: Potency index, ratio of IC50 for oridonin to IC50 for test compound for antiproliferative activity against MDA-MB-231 cells; format: functional, Homo sapiens
[16] = Toxicity in ICR mouse allografted with mouse H22 cells assessed as reduction in body weight at 8 mg/kg, iv administered every two days for 21 days after 7 days of tumor implantation measured every two days; format: organism-based; conditions: in vivo, 504 h, time 21 day
H22 [17] = experiment: Antitumor activity against mouse H22 cells allografted in ICR mouse assessed as reduction in tumor weight at 8 mg/kg, iv administered every two days for 21 days after 7 days of tumor implantation; format: functional; set-up: scale not given: the % may be the effect or the level left; conditions: time 21 day

Row | SMILES | IC50 (MGC-803) | IC50 (MCF7 [2]) | IC50 (SW480) | IC50 (H22 [3]) | selectivity ratio [4] | IC50 [5] | IC50 (MDA-MB-231 [6]) | IC50 (SMMC-7721 [7]) | IC50 at 72 h [9] | IC50 (HeLa) | IC50 (K562 [11]) | other results
1 | C=C1C(=O)[C@]23[C@H](OC(=O)/C=C/c4ccncc4)[C@H]1CC[C@H]2[C@]12C=CCC(C)(C)[C@H]1[C@H](O)[C@@]3(O)OC2 | 1.15 µM | 1.31 µM | 1.11 µM | 0.36 µM | 17.7 | 1.16 µM | 0.64 µM | 0.35 µM | 6.23 µM | 0.97 µM | 0.21 µM | Activity (H22 [1]): Active; Activity [8]: Non-Toxic; Activity (H22 [10]): 56.76%
2 | C=C1C(=O)[C@@]23C(=O)C[C@@H]4C(C)(C)CCC[C@@]4(COC(C)=O)[C@@H]2CC[C@@H]1[C@H]3OC(C)=O | – | 1.3 µM | – | – | – | – | 1.67 µM | 2.09 µM | – | – | 0.99 µM | Ratio IC50 (SMMC-7721 [12]): 6.2; Ratio IC50 (K562 [13]): 4; Ratio IC50 (MCF7 [14]): 8.5; Ratio IC50 (MDA-MB-231 [15]): 6.9
3 | C=C1C(=O)[C@]23[C@H](O)[C@H]1CC[C@H]2[C@]12CCCC(C)(C)[C@H]1C[C@@]3(O)OC2 | – | 2.97 µM | – | – | – | – | 2.51 µM | 2.96 µM | – | – | 1.98 µM | –
4 | C=C1C(=O)[C@]23[C@H](O)[C@H]1CC[C@H]2[C@]12C=CCC(C)(C)[C@H]1[C@H](O)[C@@]3(O)OC2 | – | 3.5 µM | – | – | – | – | 1.88 µM | 3.76 µM | – | – | 2.04 µM | –
5 | CC(=O)O[C@H]1C(=O)[C@@]2(C)[C@H]([C@H](OC(=O)c3ccccc3)[C@]3(O)C[C@H](OC(=O)[C@H](O)[C@@H](NC(=O)c4ccccc4)c4ccccc4)C(C)=C1C3(C)C)[C@]1(OC(C)=O)CO[C@@H]1C[C@@H]2O [PACLITAXEL] | – | – | – | – | – | – | – | – | – | – | – | Activity [16]: Toxic; Activity (H22 [17]): 90.39%
6 | C=C1C(=O)[C@]23[C@H](OC(=O)/C=C/c4ccncc4)[C@H]1CC[C@H]2[C@]12CCCC(C)(C)[C@H]1C[C@@]3(O)OC2 | 0.96 µM | 0.71 µM | 0.8 µM | 0.78 µM | 6.79 | 0.9 µM | 0.72 µM | 0.77 µM | 5.24 µM | 0.94 µM | 0.34 µM | Activity (H22 [1]): Active; Activity [8]: Non-Toxic; Activity (H22 [10]): 52.34%
7 | C=C1C(=O)[C@@]23C(=O)[C@@H](OC(C)=O)[C@@H]4C(C)(C)CC=C[C@@]4(COC(C)=O)[C@@H]2CC[C@@H]1[C@H]3OC(C)=O | – | 3.57 µM | – | – | – | – | 3.14 µM | 2.92 µM | – | – | 1.67 µM | –
8 | C=C1C(=O)[C@]23[C@H](O)[C@H]1CC[C@H]2[C@@]12CO[C@]3(O)[C@@H](O)[C@@H]1C(C)(C)CC[C@@H]2O [ORIDONIN] | 15.1 µM | 11.1 µM | 11.6 µM | 4.88 µM | 2.73 | 14.1 µM | 11.6 µM | 12.6 µM | 34.3 µM | 17.3 µM | – | –
9 | C=C1C(=O)[C@@]23C(=O)[C@@H](OC(C)=O)[C@@H]4C(C)(C)CCC[C@@]4(COC(C)=O)[C@@H]2CC[C@@H]1[C@H]3OC(C)=O | – | 2.06 µM | – | – | – | – | 1.59 µM | 2.27 µM | – | – | 1.03 µM | –
10 | C=C1C(=O)[C@]23[C@H](O)[C@H]1CC[C@H]2[C@]12CCCC(C)(C)[C@H]1[C@H](O)[C@@]3(O)OC2 | – | 2.8 µM | – | – | – | – | 2.04 µM | 3.14 µM | – | – | 1.23 µM | –
